# Measurements from patent publication US20130136693A1, “Crystal Forms of 2--Adenosine” (King Pharmaceuticals Research and Development, Inc, priority 2008, published 2013).
# Legend:
# Format in all cases: physicochemical
# [1] = competitive slurry experiments (XRPD of remaining solids); details: 25 °C, 24 h
# Description: Two different types of slurry experiments may be performed, i.e., competitive and noncompetitive slurry experiments. Competitive slurry experiments are performed by mixing excess amounts of non-solvated polymorphic forms together in different solvents and agitating the mixture isothermally. These types of slurry experiments may be used to determine which form is more thermodynamically stable (under the conditions tested).
# When competitive slurry experiments are performed, the nucleation step is generally bypassed. Because the two (or more) forms placed into contact with the solvent have different solubilities, particles of the form with the lower solubility grow at the expense of the more soluble form. This occurs since the more soluble form is saturated, and the less soluble form is supersaturated.
# (§1) In general, slurry experiments are performed by agitating approximately 0.01 g to 2.5 g of material in 0.5 mL to 50 mL of slurry solvent. Uniform agitation and temperature control are accomplished using, e.g., Reacti-Therm heating modules and small Teflon coated stir bars. The duration of the slurry experiments is often around 24 h (although in some cases the experiments may be continued for several weeks). At the end of the slurry experiment, remaining undissolved solids are collected by vacuum filtration. To avoid inducing any type of physical change, the solids are not subjected to additional drying before the XRPD analysis.
# In addition to the pure solvent noncompetitive slurry experiments performed, three competitive slurry experiments in Table 8 are performed at room temperature. These slurry experiments are composed of an approximately 50/50 mixture of Form I and Form II solids. Three different solvents are used to perform the competitive slurry experiments: DCM, i-PrOAc and EtOAc.
# [2] = drying of crystals, crystal form checked by XRPD
# Description: Furthermore, TGA and ^1H-NMR indicate that Form I crystals may also contain approximately 4 wt-% of ethanol (FIG. 1A).
# In accordance with the TG data, after a few minutes at 125° C. in the KF oven, most of the weight loss from ethanol and water is complete affording Form I crystals in an anhydrous form (FIG. 1B). […] A comparison of the calorimetric behavior of the anhydrous Form I crystals and the Form I crystals containing residual solvents (“undried”) is summarized in Table 1:
# Form II crystal form may be obtained in a hydrated form or in an anhydrous form. For example, slow crystallization from lower alcohols such as MeOH and EtOH in the presence of residual water provides hydrated Form II crystals.
# [3] = moisture sorption analysis; details: relative humidity of about 94%, 14 days, 25° C.
# [4] = solubility studies in EtOH
# Description: In the current set of results, Form I crystals readily transforms into Form II crystals in EtOAc at 60° C. for 4 h (experiment No. 7). […] Thus, Form I appears to convert to Form II, but really converts to Form II hydrate. […] Thus, in the presence of residual water, Form II is obtained in the isostructural hydrate form, whereas in a completely anhydrous system, Form I results.
# [5] = non-competitive slurry experiments (XRPD of remaining solids); details: for Final Form (XRPD): 4 h
# Description: In an alternative aspect of the present invention, solid forms of binodenoson may be suspended in a suitable solvent at a temperature of at least 10° C., preferably at a temperature ranging from about 25° C. to about 60° C. Under suitable conditions, a suspension/slurry results in which particles of solid are dispersed, and remain incompletely dissolved in the solvent. Preferably, the solids are maintained in a state of suspension by agitation, e.g., by shaking or stirring. The suspension/slurry is then kept at a temperature of 10° C. or higher, e.g., at a temperature ranging from about 25° C. to about 60° C., for a time sufficient to effect transformation of the starting solids into product crystals. The product crystals may then be isolated and dried using conventional methods in the art. In the presence of water, all crystal forms of binodenoson will convert to Form II hydrate.
# Noncompetitive slurry experiments are useful for identifying solvent mediated conditions useful for converting one crystalline form to another. In these experiments, excess material of a single crystal form is mixed with a solvent under isothermal conditions. These experiments rely on differences in solubility of the different polymorphic forms. […] Essentially, when a polymorph is suspended in a suitable solvent, a saturated solution phase (eventually) results. The solution phase is saturated with respect to the polymorphic form dissolved.
# The results of these experiments often depend on nucleation kinetics and the presence of impurities that may inhibit nuclei growth of other stable crystalline modifications.
# as §1
compound,measurement,setting,value
"Nc1nc(NN=CC2CCCCC2)nc2c1ncn2[C@@H]1O[C@H](CO)C(O)C1O (stereo partly drawn) [Form I & II, 2-{2-[(cyclohexyl)methylene]-hydrazino}adenosine]",Final Form (XRPD),[1]; experiment No. 11: DCM,II^b
same,Final Form (XRPD),[1]; experiment No. 12: i-PrOAc,II^b
same,Final Form (XRPD),[1]; experiment No. 13: EtOAc,II^b
"Nc1nc(NN=CC2CCCCC2)nc2c1ncn2[C@@H]1O[C@H](CO)[C@@H](O)[C@H]1O [Form I, 2-{2-[(cyclohexyl)methylene]-hydrazino}adenosine]",change of crystalline form upon drying (XRPD),"[2]; drying under nitrogen, 125° C. in the KF oven",does not change significantly
same,hygroscopicity,[3],non-hygroscopic
same,thermodynamic stability relative to Form II,"[4]; when water is not present, from solubilities",thermodynamically more stable than Form II
same,Final Form (XRPD),"[5]; experiment No. 1: EtOAc, 40 °C",amorphous
same,Final Form (XRPD),"[5]; experiment No. 2: EtOH, 40 °C",all dissolved
same,Final Form (XRPD),"[5]; experiment No. 4: i-Pr2O, 40 °C",amorphous
same,Final Form (XRPD),"[5]; experiment No. 5: MeOH, 40 °C",all dissolved
same,Final Form (XRPD),"[5]; experiment No. 7: EtOAc, 60 °C",II^b
"Nc1nc(NN=CC2CCCCC2)nc2c1ncn2[C@@H]1O[C@H](CO)[C@@H](O)[C@H]1O [Form II hydrate, 2-{2-[(cyclohexyl)methylene]-hydrazino}adenosine]",change of XRPD pattern upon drying,[2]; drying the hydrated crystals,does not change the XRPD pattern
same,solubility of the isostructural hydrate,"[4]; presence of residual water, deduced",lower solubility than that of Form I
"Nc1nc(NN=CC2CCCCC2)nc2c1ncn2[C@@H]1O[C@H](CO)[C@@H](O)[C@H]1O [Form II, 2-{2-[(cyclohexyl)methylene]-hydrazino}adenosine]",solubility compared with Form I,[4]; anhydrous Forms I and II compared in EtOH,much higher solubility
same,behaviour during solubility studies,[4]; dry EtOH,completely dissolve and recrystallize as Form I
"Nc1nc(NN=CC2CCCCC2)nc2c1ncn2[C@@H]1O[C@H](CO)[C@@H](O)[C@H]1O [Form V, 2-{2-[(cyclohexyl)methylene]-hydrazino}adenosine]",stability relative to Form I,"[5]; at 40° C., from experiment No. 6 (DCM slurry)",more stable than Form I
"Nc1nc(NN=CC2CCCCC2)nc2c1ncn2[C@@H]1O[C@H](CO)[C@@H](O)[C@H]1O [anhydrous Form I, 2-{2-[(cyclohexyl)methylene]-hydrazino}adenosine]",crystal form after moisture sorption analysis,[3],remains the same
same,weight gain in moisture sorption analysis,[3],approximately 1.3%
